In patent US20140274978A1, “Phytosterol spirostane and spirostene derivatives having a wide variety of utilities in humans and other animals” (priority 2013, published 2014):
Read-outs that look alike come from different tables or passages of the source.

Tests used:
[1] = Oral 5-androsten-3β,17β-diol-7-one diacetate with weight resistance training; assay type: in vivo, humans
Method: Human volunteers familiar with conventional anabolic steroids used 60 mg/day (20 mg tid) 5-androsten-3β,17β-diol-7-one diacetate orally, in conjunction with weight resistance training.

[2] = labeled ecdysterone 50 mg/kg, mice; cited from earlier work
protein synthesis = details: cited from earlier work; for sensitivity of protein stimulation to actinomycin D: Russian report, Biol. Nauki 1984
[3] = Laxogenin in a person with double knee replacement (pain, recovery); assay type: in vivo, humans
Method: The compounds of the present invention also have the ability to mediate and/or reduce pain in humans and other animals. A person received a double knee replacement due to long time injuries. They began taking 3 doses per day of Laxogenin at 150 mg per dose one week prior to knee surgery.

[4] = Oral administration to older dogs (vigor, health); assay type: in vivo; details: for behavior of ailing dogs / age lived to: two Rhodesian Ridgeback dogs; for behavior of ailing dogs: age 13, failure to thrive; for age lived to: daily dosages from age 13; for activity, stamina, appetite, stiffness, overall health reported by pet owners / lean muscle mass and body fat: dogs of 7-14 years of age; for activity, stamina, appetite, stiffness, overall health reported by pet owners: 1-10 mg/day in two divided doses; for lean muscle mass and body fat: over 2-3 months administration
Description: Their appetite and activity increased, they became leaner—leaner muscle, wanted to go for walks and became like a new dog. They lived another 3 years on a daily dosages to age 16. Their treating Veterinarian said he had never seen dogs of their size and breed live to such an advanced age. Numerous similar reports were collected.
See Kokl. Akad. Nauk. Uzb., SSR, 1981, v.3, pp. 31-33. See also Farmakol. Toksikol., 1976, 39(5), pp. 631-35.

[5] = Physical stamina and endurance of hunting dogs; assay type: in vivo; details: 5-10 mg/day
Description: The compounds of invention are also useful for increasing physical stamina and endurance in young working and sporting dogs used for hunting, sled pulling and herding and dogs in competitions such as greyhound racing, field trials, agility, disc dog, dock jumping and Schutzhund.

[6] = Topical lotion on severely atrophic skin of an elderly person; assay type: in vivo, humans; details: atrophic skin of hands; for skin elasticity and strength: after one month; for traumatic purpurra and venous lakes: two months
Description: Phytosterol derivative compounds of the present invention are also useful as skin agents for animals and useful as cosmetic agents when formulated in preparations which, when applied to the skin, create a penetrating flux that will deliver the compound to both the epidermis and dermis. The preferred lotion formulations are of low irritancy and are generally comprised of either a spirostane or a spirostene or, preferably for synergistic reasons, a combination of both [0.05-0.2% (w/w) combined in a ratio of 2:1 to 1:2] dissolved in a solution consisting of propylene glycol [50-70% (w/w)]. propylene carbonate [15-25% (w/w)], water [10-20% (w/w)], and glycerol [0.12.0% (w/w)]. The steroid solutions are most preferably formulated at 80-90% saturation.
The compounds of invention, when formulated as above, are useful for reversing many aspects of degenerative skin disorders (such as thin, fragile, inelastic skin and weakened dermal blood vessels) due to various causes such as aging or chronic corticosteroid therapy.

[7] = Synergy of 7-keto-diosgenin with laxogenin and/or 5-hydroxy laxogenin (inventor's finding); details: 1:1 ratio found effective
androgen receptors = molecular target: T1, androgen receptors (Homo sapiens, UniProt P10275); experiment: Competitive binding inhibition studies (Baylor University), androgen receptors; details: even at the limits of compound solubility
T1 sequence (P10275 1-920): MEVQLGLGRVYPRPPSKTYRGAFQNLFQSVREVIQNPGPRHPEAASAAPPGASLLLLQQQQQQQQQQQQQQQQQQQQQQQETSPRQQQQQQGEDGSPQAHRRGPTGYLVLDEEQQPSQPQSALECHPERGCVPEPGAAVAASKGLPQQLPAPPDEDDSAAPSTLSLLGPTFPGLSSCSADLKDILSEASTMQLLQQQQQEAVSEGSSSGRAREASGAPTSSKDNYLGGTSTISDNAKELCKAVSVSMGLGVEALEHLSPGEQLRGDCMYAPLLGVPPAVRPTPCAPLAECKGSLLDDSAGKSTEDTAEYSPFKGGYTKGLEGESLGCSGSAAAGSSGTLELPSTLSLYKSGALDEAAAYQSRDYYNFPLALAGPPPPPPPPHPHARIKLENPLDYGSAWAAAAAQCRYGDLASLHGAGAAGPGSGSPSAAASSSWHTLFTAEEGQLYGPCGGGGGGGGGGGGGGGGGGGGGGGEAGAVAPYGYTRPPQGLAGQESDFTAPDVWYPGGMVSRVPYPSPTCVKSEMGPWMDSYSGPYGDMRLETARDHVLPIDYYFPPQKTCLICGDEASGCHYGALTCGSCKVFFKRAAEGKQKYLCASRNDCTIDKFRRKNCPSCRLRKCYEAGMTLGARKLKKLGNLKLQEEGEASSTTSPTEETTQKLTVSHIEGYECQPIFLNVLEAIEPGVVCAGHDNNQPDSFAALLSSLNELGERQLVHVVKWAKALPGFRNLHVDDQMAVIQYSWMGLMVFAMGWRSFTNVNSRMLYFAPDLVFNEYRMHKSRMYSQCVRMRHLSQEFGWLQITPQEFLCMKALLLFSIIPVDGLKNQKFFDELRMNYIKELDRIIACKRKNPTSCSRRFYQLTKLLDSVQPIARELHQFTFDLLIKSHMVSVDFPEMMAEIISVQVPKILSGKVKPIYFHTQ
Description: (§1) Consequently, the spirostane and spirostene compounds of the present invention are expected to be devoid of hormonal activity.

estrogen receptors = experiment: Competitive binding inhibition studies (Baylor University), estrogen receptors; details: even at the limits of compound solubility
Description: as §1

[8] = Oral administration to aging human volunteers (energy, stamina, sleep); assay type: in vivo, humans
Method: The spirostanic compounds of the invention are also useful in increasing and restoring health and vigor, useful in preventing fatigue, and useful in improving physical condition and performance and increasing work output in aging humans and other mammals. For example, 15 mg of 25R-Spirostan-3B, 5α-diol-6-one was given to a person in three divided doses per day (t.i.d.) for two weeks.
15 mg of 25R-Spirostan-3B, 5α-diol-6-one was given to a person in three divided doses per day (t.i.d.) for two weeks.

[9] = Life span of a Great Dane on daily administration; assay type: in vivo, dogs; details: 8 mg/day from age 8, upper limit for lineage 10 years
Method: The compounds of invention are also useful for lengthening the life span of various large breeds of dogs (and presumably small breeds). One Great Dane. given 25R-Spirostan-3B, 5α-diol-6-one daily (8 mg/day) from age 8 on. lived to be almost 13 years old. The dog had to be euthanized because it suffered from dysplasia in both hips; otherwise it was healthy and active. The upper limit of age for Great Danes of this lineage was previously considered to be 10 years.
A Great Dane that was given 25R-Spirostan-3B, 5α-diol-6-one daily (8 mg/day) from age 8 on lived to be almost 13 years old. The dog had to be euthanized because it suffered from dysplasia in both hips; otherwise it was healthy and active. The upper limit of age for Great Danes of this particular lineage was previously considered to be 10 years.

[10] = cited from earlier work
[11] = 3 grams/day for 30 days, humans; cited from earlier work
[12] = rat, in vivo, 25 mg/kg; cited from earlier work
[13] = 15 mg in three divided doses per day, two weeks, person

CC(=O)O[C@H]1CC[C@@]2(C)C(=CC(=O)[C@H]3[C@@H]4CC[C@H](OC(C)=O)[C@@]4(C)CC[C@@H]32)C1 [5-androsten-3β,17β-diol-7-one diacetate]
androgenic side-effects ([1]; 60 mg/day (20 mg tid) orally): No subject reported any noticeable androgenic side-effects
strength, endurance and muscle mass accretion ([1]; 60 mg/day (20 mg tid) orally with weight resistance training): increases in strength and endurance as well as accelerated increases in muscle mass accretion

CC(C)(O)CC[C@@H](O)[C@](C)(O)[C@H]1CC[C@@]2(O)C3=CC(=O)[C@@H]4C[C@@H](O)[C@@H](O)C[C@]4(C)[C@H]3CC[C@]12C [ecdysterone, 20-Hydroxyecdysone]
serum half-life [2]: 8.15 min
repression of induced protein synthesis by actinomycin D (protein synthesis; Japanese report, Chem. Pharm. Bull. 1969): partially repressed
sensitivity of protein stimulation to actinomycin D (protein synthesis): completely insensitive to actinomycin D

C[C@@H]1CC[C@@]2(OC1)O[C@H]1C[C@H]3[C@@H]4CC(=O)[C@H]5C[C@@H](O)CC[C@]5(C)[C@H]4CC[C@]3(C)[C@H]1[C@@H]2C [Laxogenin, (25R)-3β-hydroxy-5α-spirostan-6-one]
pain before surgery ([3]; 3 doses per day at 150 mg per dose, started one week prior to knee surgery): pain had diminished their third day
standing and walking ([3]; 7th day after surgery): could stand and walk far distances free of pain, stiffness and discomfort
need for morphine drip ([3]; day after operation): able to discontinue their morphine drip altogether
surface inflammation and scarring ([3]; liquid version applied topically): reduced surface inflammation and scarring greatly
behavior of ailing dogs [4]: started to exhibit puppy like behavior after 48 hours
age lived to [4]: 16

CC(C)(O)CC[C@@H](O)[C@](C)(O)[C@H]1CC[C@@]2(O)C3=CC(=O)[C@@H]4C[C@@H](O)[C@@H](O)C[C@]4(C)[C@H]3[C@H](O)C[C@]12C [turkesterone]
sensitivity of protein stimulation to actinomycin D (protein synthesis): completely insensitive to actinomycin D

C[C@@H]1CC[C@@]2(OC1)O[C@H]1C[C@H]3[C@@H]4C(=O)C=C5C[C@@H](O)CC[C@]5(C)[C@H]4CC[C@]3(C)[C@H]1[C@@H]2C [7-keto-diosgenin, 5,25R-spirosten-3β-ol-7-one]
activity, stamina, appetite, stiffness, overall health reported by pet owners [4]: increased activity, playfulness, physical stamina, appetite and interaction with owners, reduced stiffness and weakness, and improved overall health
lean muscle mass and body fat [4]: increased many of the dogs' lean muscle mass while reducing body fat
behavior of ailing dogs [4]: started to exhibit puppy like behavior after 48 hours
age lived to [4]: 16
physical stamina and endurance [5]: noticeable improvement in their dogs physical stamina and endurance within one week
skin elasticity and strength [6]: dramatic increases in skin elasticity and strength
traumatic purpurra and venous lakes [6]: Virtually all traumatic purpurra and venous lakes were resolved within two months
synergy with laxogenin and/or 5-hydroxy laxogenin [7]: unexpectedly synergistic

C[C@@H]1CC[C@@]2(OC1)O[C@H]1C[C@H]3[C@@H]4CC(=O)[C@@]5(O)C[C@@H](O)CC[C@]5(C)[C@H]4CC[C@]3(C)[C@H]1[C@@H]2C [25R-Spirostan-3B, 5α-diol-6-one, (25R)-spirostan-3β-5α-diol-6-one]
binding to androgen receptors (androgen receptors): did not bind
binding to estrogen receptors (estrogen receptors): did not bind
length of time able to work in garden [8, 13]: 2-3 times
well-being, energy and physical stamina [8, 13]: overall increase in well-being, accompanied by a definite increase in energy and physical stamina
total sleep time ([8]; 60 mg/day, over one month, increased from 6 hrs/night): approximately 8 hrs/night
physical energy and stamina ([8]; 60 mg/day, person and person): definite increases in physical energy and stamina within one week
activity, stamina, appetite, stiffness, overall health reported by pet owners [4]: increased activity, playfulness, physical stamina, appetite and interaction with owners, reduced stiffness and weakness, and improved overall health
lean muscle mass and body fat [4]: increased many of the dogs' lean muscle mass while reducing body fat
age lived to [9]: ~13 years
physical stamina and endurance [5]: noticeable improvement in their dogs physical stamina and endurance within one week
skin elasticity and strength [6]: dramatic increases in skin elasticity and strength
traumatic purpurra and venous lakes [6]: Virtually all traumatic purpurra and venous lakes were resolved within two months
anabolic activity in older (mature) rats ([10]; older (i.e. mature) rats): reduced anabolic activity
anabolic activity in young rats ([10]; young rats): higher anabolic activity

C[C@@H]1CC[C@@]2(OC1)O[C@H]1C[C@H]3[C@@H]4CC=C5C[C@@H](O)CC[C@]5(C)[C@H]4CC[C@]3(C)[C@H]1[C@@H]2C [diosgenin]
metabolism in the B-ring [11]: not metabolized in the B-ring
serum half-life [12]: approximately 14 hours
